# According to ChEMBL document CHEMBL1201862, “PubChem BioAssay data set” (2004):
#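 In this assay, cells in 96-well plates receive the compound at five concentrations for 48 hours. Endpoints are linearly interpolated between the surrounding concentrations. The concentration for 50% growth inhibition is given as GI50.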 Activity calls are given as the source filed them. Cut-off read from the data, not from the text of the source: active = GI50 up to about 1.1 µM and inactive = higher.
# How the values were obtained:
# Test in all cases: NCI tumour cell line growth inhibition, 48 h
# [1] = system: SNB-19
# [2] = system: NCI-H460
# [3] = system: SK-MEL-5
# [4] = system: 786-0
# [5] = system: HCT-116
# [6] = system: SW-620
# [7] = system: ACHN
# [8] = system: HCT-15
# [9] = system: OVCAR-5
# [10] = system: MDA-MB-231
# [11] = system: A498
# [12] = system: HL-60
# [13] = system: HT-29
# [14] = system: CCRF-CEM
# [15] = system: COLO 205
# [16] = system: HOP-62
# [17] = system: NCI-H23
# [18] = system: K562
# [19] = system: NCI-H226
# [20] = system: PC-3
# [21] = system: NCI/ADR-RES
# [22] = system: MCF7
# [23] = system: Hs-578T
# [24] = system: SK-MEL-28
# [25] = system: LOX IMVI
# [26] = system: SF-539
# [27] = system: A549
# [28] = system: U-251
# [29] = system: MDA-MB-435
# [30] = system: Malme-3M
# [31] = system: SNB-75
# [32] = system: MDA-N
# [33] = system: UACC-257
# [34] = system: UO-31
# [35] = system: NCI-H522
# [36] = system: IGROV-1
# [37] = system: SF-295
# [38] = system: T47D
# [39] = system: MOLT-4
# [40] = system: DU-145
# [41] = system: KM12
# [42] = system: RPMI-8226
# [43] = system: CAKI-1
# [44] = system: SF-268
# [45] = system: EKVX
# [46] = system: SR
# [47] = system: OVCAR-8
# [48] = system: RXF 393
# [49] = system: HCC 2998
# [50] = system: HOP-92
# [51] = system: OVCAR-3
# [52] = system: SN12C
# [53] = system: SK-MEL-2
# [54] = system: M14
# [55] = system: TK-10
# [56] = system: BT-549
# [57] = system: SK-OV-3
# [58] = system: UACC-62
# [59] = system: OVCAR-4
structure (smiles),measurement,setting,value
C=CCO[C@]1(CC=C)C(=O)C(=O)OC1C1COC(C)(C)O1 (stereo partly drawn),GI50,[1],> 100 µM (inactive)
same,GI50,[2],65.2 µM (inactive)
same,GI50,[3],36.1 µM (inactive)
same,GI50,[4],35.1 µM (inactive)
same,GI50,[5],32 µM (inactive)
same,GI50,[6],18.6 µM (inactive)
same,GI50,[7],16.6 µM (inactive)
same,GI50,[8],21.1 µM
same,GI50,[9],> 100 µM (inactive)
same,GI50,[10],41.6 µM (inactive)
same,GI50,[11],> 100 µM (inactive)
same,GI50,[12],> 10 µM (inactive)
same,GI50,[13],19.8 µM (inactive)
same,GI50,[14],29.4 µM (inactive)
same,GI50,[15],20.5 µM (inactive)
same,GI50,[16],> 100 µM (inactive)
same,GI50,[17],53.2 µM (inactive)
same,GI50,[18],27.4 µM (inactive)
same,GI50,[19],> 100 µM (inactive)
same,GI50,[20],44.6 µM (inactive)
same,GI50,[21],37.4 µM (inactive)
same,GI50,[22],19.1 µM (inactive)
same,GI50,[23],74 µM (inactive)
same,GI50,[24],> 10 µM (inactive)
same,GI50,[25],16.9 µM (inactive)
same,GI50,[26],> 100 µM (inactive)
same,GI50,[27],> 100 µM (inactive)
same,GI50,[28],72.3 µM (inactive)
same,GI50,[29],36 µM (inactive)
same,GI50,[30],17.3 µM (inactive)
same,GI50,[31],27.7 µM (inactive)
same,GI50,[32],36 µM (inactive)
same,GI50,[33],30 µM (inactive)
same,GI50,[34],84.5 µM (inactive)
same,GI50,[35],21.2 µM (inactive)
same,GI50,[36],> 100 µM (inactive)
same,GI50,[37],> 100 µM (inactive)
same,GI50,[38],34.8 µM (inactive)
same,GI50,[39],31.8 µM (inactive)
same,GI50,[40],> 100 µM (inactive)
same,GI50,[41],18.8 µM (inactive)
same,GI50,[42],25.9 µM (inactive)
same,GI50,[43],27.1 µM (inactive)
same,GI50,[44],26.6 µM (inactive)
same,GI50,[45],> 100 µM (inactive)
same,GI50,[46],22.9 µM (inactive)
same,GI50,[47],29.2 µM (inactive)
same,GI50,[48],19.8 µM (inactive)
same,GI50,[49],> 100 µM (inactive)
same,GI50,[50],22.3 µM (inactive)
same,GI50,[51],45.7 µM (inactive)
same,GI50,[52],34.4 µM (inactive)
CC1(CCCCO)C=CC(S(=O)(=O)c2ccccc2)CC1 (stereo not drawn),GI50,[1],13.6 µM (inactive)
same,GI50,[2],3.15 µM (inactive)
same,GI50,[3],4.27 µM (inactive)
same,GI50,[4],3.96 µM (inactive)
same,GI50,[5],4.15 µM (inactive)
same,GI50,[6],5.87 µM (inactive)
same,GI50,[53],11.1 µM (inactive)
same,GI50,[54],3.4 µM (inactive)
same,GI50,[7],5.57 µM (inactive)
same,GI50,[8],3.69 µM
same,GI50,[9],4.85 µM (inactive)
same,GI50,[10],4.31 µM (inactive)
same,GI50,[11],8.59 µM (inactive)
same,GI50,[13],1.82 µM (inactive)
same,GI50,[55],6.97 µM (inactive)
same,GI50,[14],2.67 µM (inactive)
same,GI50,[15],4.37 µM (inactive)
same,GI50,[16],2.64 µM (inactive)
same,GI50,[17],5.04 µM (inactive)
same,GI50,[18],3.24 µM (inactive)
same,GI50,[19],2.43 µM (inactive)
same,GI50,[56],14.4 µM (inactive)
same,GI50,[20],4.11 µM (inactive)
same,GI50,[21],2.59 µM (inactive)
same,GI50,[22],3.15 µM (inactive)
same,GI50,[24],14.9 µM (inactive)
same,GI50,[25],1.78 µM (inactive)
same,GI50,[26],7.91 µM (inactive)
same,GI50,[27],3.64 µM (inactive)
same,GI50,[57],10.8 µM (inactive)
same,GI50,[28],6.95 µM (inactive)
same,GI50,[29],9.42 µM (inactive)
same,GI50,[30],0.581 µM (active)
same,GI50,[31],1.46 µM (inactive)
same,GI50,[32],3.42 µM (inactive)
same,GI50,[33],4.41 µM (inactive)
same,GI50,[34],4.16 µM (inactive)
same,GI50,[35],1.87 µM (inactive)
same,GI50,[36],2.38 µM (inactive)
same,GI50,[37],12 µM (inactive)
same,GI50,[39],3.15 µM (inactive)
same,GI50,[40],5.14 µM (inactive)
same,GI50,[41],1.86 µM (inactive)
same,GI50,[42],1.56 µM (inactive)
same,GI50,[43],10.7 µM (inactive)
same,GI50,[44],1.36 µM (inactive)
same,GI50,[45],3.1 µM (inactive)
same,GI50,[46],2.33 µM (inactive)
same,GI50,[58],6.15 µM (inactive)
same,GI50,[47],10.5 µM (inactive)
same,GI50,[48],5.45 µM (inactive)
same,GI50,[49],5.9 µM (inactive)
same,GI50,[50],2.84 µM (inactive)
same,GI50,[59],8.67 µM (inactive)
same,GI50,[51],6.17 µM (inactive)
same,GI50,[52],11 µM (inactive)
